SMILES strings stand for the structures.

The target in the first assay is T1, hQ23 (HEK-293 cell line stably transfected with one of the members of the KCNQ family) (Homo sapiens, UniProt O43525+O43526).
T1 construct: expressed in transfected cells; host or cells: HEK-293, stably transfected
T1 sequence (O43526 whole entry): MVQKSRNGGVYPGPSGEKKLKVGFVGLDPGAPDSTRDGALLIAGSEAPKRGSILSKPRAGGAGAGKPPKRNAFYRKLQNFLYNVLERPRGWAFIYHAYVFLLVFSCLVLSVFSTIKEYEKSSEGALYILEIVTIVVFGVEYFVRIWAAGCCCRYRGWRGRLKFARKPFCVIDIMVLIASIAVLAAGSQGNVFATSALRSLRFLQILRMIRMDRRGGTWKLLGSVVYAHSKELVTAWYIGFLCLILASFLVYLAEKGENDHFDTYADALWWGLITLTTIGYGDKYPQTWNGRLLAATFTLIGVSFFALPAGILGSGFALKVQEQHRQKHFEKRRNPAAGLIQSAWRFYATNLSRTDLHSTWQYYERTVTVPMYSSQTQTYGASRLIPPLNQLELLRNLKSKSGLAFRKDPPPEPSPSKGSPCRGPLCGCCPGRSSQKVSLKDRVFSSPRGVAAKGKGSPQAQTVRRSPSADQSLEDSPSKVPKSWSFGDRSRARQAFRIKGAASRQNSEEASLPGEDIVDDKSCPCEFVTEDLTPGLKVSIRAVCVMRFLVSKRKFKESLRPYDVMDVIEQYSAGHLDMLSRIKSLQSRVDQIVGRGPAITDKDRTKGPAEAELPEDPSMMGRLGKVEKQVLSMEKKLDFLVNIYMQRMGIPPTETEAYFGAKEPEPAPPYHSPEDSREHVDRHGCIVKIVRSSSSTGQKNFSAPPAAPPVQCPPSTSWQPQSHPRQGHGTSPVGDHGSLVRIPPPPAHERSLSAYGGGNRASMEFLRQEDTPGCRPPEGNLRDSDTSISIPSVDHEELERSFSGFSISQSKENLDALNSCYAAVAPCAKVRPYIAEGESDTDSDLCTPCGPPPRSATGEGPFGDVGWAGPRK
T1 sequence (O43525 whole entry): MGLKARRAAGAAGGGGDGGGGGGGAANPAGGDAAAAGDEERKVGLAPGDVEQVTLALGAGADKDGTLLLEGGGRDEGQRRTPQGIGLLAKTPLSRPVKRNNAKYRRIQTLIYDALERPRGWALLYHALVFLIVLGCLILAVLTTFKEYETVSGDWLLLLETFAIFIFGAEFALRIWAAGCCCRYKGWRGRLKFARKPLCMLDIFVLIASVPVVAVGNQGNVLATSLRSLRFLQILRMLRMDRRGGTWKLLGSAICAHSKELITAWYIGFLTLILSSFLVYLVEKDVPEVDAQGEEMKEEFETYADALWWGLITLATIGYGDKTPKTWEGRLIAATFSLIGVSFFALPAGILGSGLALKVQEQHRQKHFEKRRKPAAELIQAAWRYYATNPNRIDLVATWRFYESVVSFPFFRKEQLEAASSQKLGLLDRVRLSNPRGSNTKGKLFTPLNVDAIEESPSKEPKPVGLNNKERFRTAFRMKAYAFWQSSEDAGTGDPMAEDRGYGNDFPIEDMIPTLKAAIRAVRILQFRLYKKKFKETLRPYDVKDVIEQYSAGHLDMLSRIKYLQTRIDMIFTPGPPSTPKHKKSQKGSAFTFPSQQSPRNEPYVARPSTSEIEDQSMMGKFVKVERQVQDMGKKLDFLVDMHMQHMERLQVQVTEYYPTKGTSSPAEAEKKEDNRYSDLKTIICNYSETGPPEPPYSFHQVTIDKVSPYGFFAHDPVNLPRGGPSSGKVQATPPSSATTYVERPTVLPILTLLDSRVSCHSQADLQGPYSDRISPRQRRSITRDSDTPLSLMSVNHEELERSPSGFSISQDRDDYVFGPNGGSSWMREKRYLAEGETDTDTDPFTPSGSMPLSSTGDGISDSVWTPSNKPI
The experiment in a line: Thallium flux assay for KCNQ channel blockers (FLIPR, BTC dye). It is filed as cell-based. The note with it: Table 2; thallium flux, HEK-293. Put shortly:
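HEK-293 cells stably expressing a KCNQ member, loaded with BTC-AM (2 μM) in chloride-free buffer, pH 7.3; compounds added at 1% DMSO, then Tl2SO4 stimulus on FLIPR (488/540 nm, 60 s). Minimal active concentration set at ≥4 SD above negative control; IC50 from 10-point 1:3 series, single-site logistic fit versus the positive-control blocker.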
With `CCN(Cc1ccccc1)C(=O)c1cnc(N2CCCC(C)C2)nc1C1(c2ccccc2)CC1` (stereo not drawn) [Example 30, 5-pyrimidinecarboxamide, N-ethyl-2-(3-methyl-1-piperidinyl)-4-(1-phenylcyclopropyl)-N-(phenylmethyl)-], the EC50 (in general, the concentration giving half of the maximal effect) is 0.634 µM. For `CN1CCN(c2ncc(C(=O)NCc3cc(F)cc(C(F)(F)F)c3)c(C3(c4ccccc4)CC3)n2)CC1` [Example 46, 5-pyrimidinecarboxamide, N-[[3-fluoro-5-(trifluoromethyl)phenyl]methyl]-2-(4-methyl-1-piperazinyl)-4-(1-phenylcyclopropyl)-], the EC50 is 0.384 µM. For `CC1CCCN(c2ncc(C(=O)N3CCc4ccccc4C3)c(C3(c4ccccc4)CC3)n2)C1` (stereo not drawn) [Example 25, isoquinoline, 1,2,3,4-tetrahydro-2-[[2-(3-methyl-1-piperidinyl)-4-(1-phenylcyclopropyl)-5-pyrimidinyl]carbonyl]-], the EC50 was 0.945 µM.

Staying with this assay, now noted: Table 3; thallium flux, HEK-293.
As for `CC1CCCN(c2ncc(C(=O)NCc3ccc(Cl)cc3Cl)c(C3(c4ccc(Cl)cc4)CCC3)n2)C1` (stereo not drawn) [Example 63, 5-pyrimidinecarboxamide, 4-[1-(4-chlorophenyl)cyclobutyl]-N-[(2,4-dichlorophenyl)methyl]-2-(3-methyl-1-piperidinyl)-], the EC50 was found to be 0.014 µM. `CC1CCCN(c2ncc(C(=O)NCc3cc(F)cc(C(F)(F)F)c3)c(C3(c4ccc(Cl)cc4)CCC3)n2)C1` (stereo not drawn) [Example 66, 5-pyrimidinecarboxamide, 4-[1-(4-chlorophenyl)cyclobutyl]-N-[[3-fluoro-5-(trifluoromethyl)phenyl]methyl]-2-(3-methyl-1-piperidinyl)-]: the EC50 stood at 0.01 µM. Same read-out and setting: with `CN1CCN(c2ncc(C(=O)NCc3ccc4c(c3)OCO4)c(C3(c4ccc(Cl)cc4)CCC3)n2)CC1` [Example 57, 5-pyrimidinecarboxamide, N-(1,3-benzodioxol-5-ylmethyl)-4-[1-(4-chlorophenyl)cyclobutyl]-2-(4-methyl-1-piperazinyl)-] the figure was 0.745 µM.

The assay is the same for the next values; noted with them: hQ23 cells, thallium flux.
`CN1CCC(N(C)c2ncc(C(=O)NCc3cc(F)cc(C(F)(F)F)c3)c(C3(c4ccc(Cl)cc4)CCCC3)n2)CC1` [Example 194, 5-pyrimidinecarboxamide, 4-[1-(4-chlorophenyl)cyclopentyl]-N-[[3-fluoro-5-(trifluoromethyl)phenyl]methyl]-2-[methyl(1-methyl-4-piperidinyl)amino]-]: the response was half-maximal at 0.13 µM (EC50). Still for that read-out and setting: with `O=C(NCc1ccc(Cl)cc1Cl)c1cnc(NC2CC2)nc1C1(c2ccccc2)CCCC1` [Example 109, 5-pyrimidinecarboxamide, 2-(cyclopropylamino)-N-[(2,4-dichlorophenyl)methyl]-4-(1-phenylcyclopentyl)-] the figure was 0.504 µM; with `CC(NC(=O)c1cnc(N2CCCC2)nc1C1(c2ccccc2)CCCC1)c1ccc(F)cc1` (stereo not drawn) [Example 132, 5-pyrimidinecarboxamide, N-[1-(4-fluorophenyl)ethyl]-4-(1-phenylcyclopentyl)-2-(1-pyrrolidinyl)-], 0.195 µM; with `CC1CCC(Nc2ncc(C(=O)NCc3ccc(Cl)c(Cl)c3)c(C3(c4ccccc4)CCCC3)n2)CC1` (stereo not drawn) [Example 106, 5-pyrimidinecarboxamide, N-[(3,4-dichlorophenyl)methyl]-2-[(4-methylcyclohexyl)amino]-4-(1-phenylcyclopentyl)-], 0.13 µM.

The assay is the same for the next values; noted with them: hQ23 cells, thallium flux assay.
Compound `O=C(NCc1cccc2ccccc12)c1cnc(NC2CCCC2)nc1C1(c2ccc(F)cc2)CCCC1` [Example 253, 5-pyrimidinecarboxamide, 2-(cyclopentylamino)-4-[1-(4-fluorophenyl)cyclopentyl]-N-(1-naphthalenylmethyl)-] gave an EC50 of 0.183 µM. `CC1CCC(Nc2ncc(C(=O)NCc3cc(F)cc(C(F)(F)F)c3)c(C3(c4ccc(F)cc4)CCCC3)n2)CC1` (stereo not drawn) [Example 274, 5-pyrimidinecarboxamide, 4-[1-(4-fluorophenyl)cyclopentyl]-N-[[3-fluoro-5-(trifluoromethyl)phenyl]methyl]-2-[(4-methylcyclohexyl)amino]-] yielded an EC50 of 0.029 µM.

Values taken from patent publication US7091202B2, “4-arylspirocycloalkyl-2-aminopyrimidine carboxamide KCNQ potassium channel modulators” (Bristol-Myers Squibb Company, priority 2004, dated 2006).
